According to patent US11028090B2 (Dong Wha Pharm. Co., Ltd., priority 2017, dated 2021):
Read-outs that look alike come from different tables or passages of the source.

Columns and labels:
[1] = system: thymus cancer cells (Ty-82 cells); assay: Cytotoxicity to thymus cancer cells (Ty-82 cells), WST-1; details: Homo sapiens, TY82, 72 h
Experimental: The following experiment was performed to evaluate the cytotoxicity of [1,2,4]triazolo[4,3-a]quinoxaline derivative according to the present invention to thymus cancer cells (Ty-82 cells).
First, thymus cancer cells (Ty-82 cells) were distributed in a 96 well plate at the density of 2.5×10^4 cells/well. 24 hours later, the plated cells were treated with the compounds of the present invention dissolved in DMSO at the different concentrations ranging from 0.01 μM to 10 μM. 72 hours later, the activities of the compounds were determined using WST-1 reagent.

[2] = biological target: BRD4 (BD1+BD2) bromodomain (Homo sapiens (Human), UniProt O60885); assay: BRD4 binding inhibition (AlphaScreen, GST-BRD4 vs tetraacetylated histone H4 peptide)
Method in brief: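 GST-BRD4 (BD1+BD2) and biotinylated tetraacetyl-histone H4 peptide, each at 100 nM in HEPES pH 7.4 buffer with BSA and DTT, were combined with compound. Glutathione acceptor and streptavidin donor beads were added, then incubated 30 min at room temperature in the dark. Read-out was AlphaScreen signal.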

[3] = system: acute myelogenous leukemia cells (MV-4-11 cells); assay: Cytotoxicity to acute myelogenous leukemia cells (MV-4-11 cells), CCK-8; details: Homo sapiens, MV4-11, 72 h
[4] = read-out: IC50, cytotoxicity against thymus cancer cells
[5] = read-out: Ty-82 Cytotoxicity IC50
[6] = GST-BRD4 (BD1+BD2) vs biotinylated acetyl-histone H4 peptide, AlphaScreen, read-out: BRD4 IC50
[7] = read-out: IC50, cytotoxicity against acute myelogenous leukemia cells
[8] = read-out: MV-4-11 Cytotoxicity IC50
[9] = GST-BRD4 (BD1+BD2) / biotinylated acetyl-histone H4 (Lys5,8,12,16) peptide, read-out: IC50, BRD4 binding inhibition

SMILES	IC50 [2, 6]	IC50 [2, 9]	IC50 [1, 4]	IC50 [1, 5]	IC50 ([2]; IC50, BRD4 binding inhibition, GST-BRD4 (BD1+BD2) / biotinylated acetyl-histone H4 (Lys5,8,12,16) peptide)	IC50 [3, 7]	IC50 [3, 8]
Cc1nnc2c(NCCCCNC(=O)Oc3ccccc3)nc3cc4c(cc3n12)OCCO4 [Example 191, [4-(1-methyl-8,9-dihydro-7,10-dioxa-2,3,5,11b-tetraaza-cyclopenta[a]anthracene-4-ylamino)-butyl]-carbamic acid phenylester]	10 nM	–	≤ 500 nM	310 nM	≤ 10 nM	≤ 200 nM	90 nM
COc1ccc2c(c1)nc(NCCCCNC(=O)C(C)(C)C)c1nnc(C)n12 [Example 277, N-[4-(7-methoxy-1-methyl-[1,2,4]triazolo[4,3-a]quinoxaline-4-ylamino)-butyl]-2,2-dimethyl-propionamide]	–	–	–	930 nM	–	–	550 nM
COc1ccc2c(c1)nc(NCCCCNC(=O)OC(C)C)c1nnc(C)n12 [Example 278, [4-(7-methoxy-1-methyl-[1,2,4]triazolo[4,3-a]quinoxaline-4-ylamino)-butyl]-carbamic acid isopropylester]	51 nM	–	≤ 500 nM	180 nM	–	≤ 200 nM	160 nM
COc1cc2nc(NCCCCNC(=O)C(C)(C)C)c3nnc(C)n3c2cc1C [Example 466]	–	–	≤ 500 nM	340 nM	–	≤ 200 nM	83 nM
COC(=O)c1ccc2c(c1)nc(NCCCCNC(=O)OC(C)(C)C)c1nnc(C)n12 [Example 197, 4-(4-tert-butoxycarbamoylamino-butylamino)-1-methyl-[1,2,4]triazolo[4,3-a]quinoxaline-7-carboxylic acid methylester]	28 nM	≤ 50 nM	–	650 nM	–	–	–
Cc1nnc2c(NCCCCNC(=O)OC(C)(C)C)nc3cc(C(=O)Nc4ccccc4)ccc3n12 [Example 212, [4-(1-methyl-7-phenylcarbamoyl-[1,2,4]triazolo[4,3-a]quinoxaline-4-ylamino)-butyl]-carbamic acid-tert-butylester]	35 nM	≤ 50 nM	–	840 nM	–	–	–
COc1cc2nc(NCCCCNC(=O)OC(C)(C)C)c3nnc(C)n3c2cc1C [Example 464, [4-(7-methoxy-1,8-dimethyl-[1,2,4]triazolo[4,3-a]quinoxaline-4-ylamino)-butyl]-carbamic acid-tert-butylester]	61 nM	–	–	790 nM	–	–	–
CC(=O)Nc1ccc2c(c1)nc(NCCCCNC(=O)OC(C)(C)C)c1nnc(C)n12 [Example 249, [4-(7-acetylamino-methyl-[1,2,4]triazolo[4,3-a]quinoxaline-4-ylamino)-butyl]-carbamic acid-tert-butylester]	–	≤ 50 nM	≤ 500 nM	400 nM	–	–	–
Cc1nnc2c(NCCCCNC(=O)c3ccccc3)nc3ccccc3n12 [Example 11, N-[4-(1-methyl-[1,2,4]triazolo[4,3-a]quinoxaline-4-ylamino)-butyl]-benzamide]	–	–	–	950 nM	–	–	710 nM
Cc1nnc2c(NCCCCNC(=O)OC(C)C)nc3ccccc3n12 [Example 4, [4-(1-methyl-[1,2,4]triazolo[4,3-a]quinoxaline-4-ylamino)-butyl]-carbamic acid isopropylester]	–	≤ 50 nM	–	650 nM	–	–	–
Cc1nnc2c(NCCCCNC(=O)c3ccccc3Cl)nc3ccccc3n12 [Example 12]	58 nM	–	–	850 nM	–	–	–
COc1cccc2c1nc(NCCCCNC(=O)OCC(C)C)c1nnc(C)n12 [Example 120, N-[4-(6-methoxy-1-methyl-[1,2,4]triazolo[4,3-a]quinoxaline-4-ylamino)-butyl]-carbamic acid isobutylester]	34 nM	≤ 50 nM	–	620 nM	–	–	–
Cc1nnc2c(NCCCCNC(=O)CC(C)(C)C)nc3ccccc3n12 [Example 8, 3,3-dimethyl-N-[4-(1-methyl-[1,2,4]triazolo[4,3-a]quinoxaline-4-ylamino)-butyl]-butyramide]	24 nM	≤ 50 nM	–	860 nM	–	–	–
CC(=O)Nc1ccc2c(c1)nc(NCCCCNC(=O)C(C)(C)C)c1nnc(C)n12 [Example 250, N-[4-(7-acetylamino-methyl-[1,2,4]triazolo[4,3-a]quinoxaline-4-ylamino)-butyl]-2,2-dimethyl-propionamide]	–	≤ 50 nM	≤ 500 nM	300 nM	–	–	–
COc1ccc2nc(NCCCCNC(=O)c3ccccc3)c3nnc(C)n3c2c1 [Example 127, N-[4-(8-methoxy-1-methyl-[1,2,4]triazolo[4,3-a]quinoxaline-4-ylamino)-butyl]-benzamide]	46 nM	≤ 50 nM	–	620 nM	–	–	–
CC(=O)Nc1ccc2c(c1)nc(NCCCCNC(=O)c1ccccc1)c1nnc(C)n12 [Example 251, N-[4-(7-acetylamino-methyl-[1,2,4]triazolo[4,3-a]quinoxaline-4-ylamino)-butyl]-benzamide]	–	≤ 50 nM	–	680 nM	–	–	–

Continued, in another order:

IC50 [2, 6]	IC50 [2, 9]	SMILES	IC50 [1, 4]	IC50 [1, 5]	IC50 ([2]; IC50, BRD4 binding inhibition, GST-BRD4 (BD1+BD2) / biotinylated acetyl-histone H4 (Lys5,8,12,16) peptide)	IC50 [3, 7]	IC50 [3, 8]
39 nM	≤ 50 nM	COc1cc2nc(NCCCCNC(=O)NC3CCCCC3)c3nnc(C)n3c2cc1OC [Example 93, 1-cyclohexyl-3-[4-(7,8-dimethoxy-1-methyl-[1,2,4]triazolo[4,3-a]quinoxaline-4-ylamino)-butyl]-urea]	–	560 nM	–	–	340 nM
40 nM	≤ 50 nM	COCCOc1cc2nc(NCCCCNC(=O)CC(C)(C)C)c3nnc(C)n3c2cc1OCCOC [Example 167, N-{4-[7,8-bis-(2-methoxy-ethoxy)-1-methyl-[1,2,4]triazolo[4,3-a]quinoxaline-4-ylamino]-butyl}-3,3-dimethyl-butyramide]	–	880 nM	–	–	510 nM
22 nM	≤ 50 nM	C=CCOC(=O)NCCCCNc1nc2cc(OC)c(OC)cc2n2c(C)nnc12 [Example 65, [4-(7,8-dimethoxy-1-methyl-[1,2,4]triazolo[4,3-a]quinoxaline-4-ylamino)-butyl]-carbamic acid allylester]	≤ 500 nM	370 nM	–	≤ 200 nM	130 nM
26 nM	≤ 50 nM	COCCOc1cc2nc(NCCCCNC(=O)OC(C)C)c3nnc(C)n3c2cc1OCCOC [Example 165, {4-[7,8-bis-(2-methoxy-ethoxy)-1-methyl-[1,2,4]triazolo[4,3-a]quinoxaline-4-ylamino]-butyl}-carbamic acid isopropylester]	–	580 nM	–	–	220 nM
–	≤ 50 nM	COc1cc2nc(NCCCCNC(=O)c3cccc(Cl)c3Cl)c3nnc(C)n3c2cc1OC [Example 102, 2,3-dichloro-N-[4-(7,8-dimethoxy-1-methyl-[1,2,4]triazolo[4,3-a]quinoxaline-4-ylamino)-butyl]-benzamide]	–	840 nM	–	–	360 nM
24 nM	≤ 50 nM	Cc1nnc2c(NCCCCOC(=O)CC(C)(C)C)nc3ccccc3n12 [Example 633]	–	900 nM	–	–	750 nM
34 nM	≤ 50 nM	COc1cc2nc(NCCCCNC(=O)C(C)(C)C)c3nnc(C)n3c2cc1OC [Example 59, N-[4-(7,8-dimethoxy-1-methyl-[1,2,4]triazolo[4,3-a]quinoxaline-4-ylamino)-butyl]-2,2-dimethyl-propionamide]	≤ 500 nM	420 nM	–	–	310 nM
18 nM	≤ 50 nM	COc1ccc2c(c1)nc(NCCCCNC(=O)OCC(C)C)c1nnc(C)n12 [Example 279, [4-(7-methoxy-1-methyl-[1,2,4]triazolo[4,3-a]quinoxaline-4-ylamino)-butyl]-carbamic acid isobutylester]	≤ 500 nM	120 nM	–	≤ 200 nM	140 nM
22 nM	≤ 50 nM	Cc1nnc2c(NCCCCNC(=O)c3ccccc3)nc3cc4c(cc3n12)OCCO4 [Example 186, N-[4-(1-methyl-8,9-dihydro-7,10-dioxa-2,3,5,11b-tetraaza-cyclopenta[a]anthracene-4-ylamino)-butyl]-benzamide]	≤ 500 nM	340 nM	–	–	680 nM
36 nM	≤ 50 nM	Cc1nnc2c(NCCCCC(=O)NCC(C)C)nc3ccccc3n12 [Example 660, 5-(1-methyl-[1,2,4]triazolo[4,3-a]quinoxaline-4-ylamino)-pentanoic acid isobutylamide]	–	840 nM	–	–	–
18 nM	≤ 50 nM	Cc1nnc2c(NCCCCNC(=O)OC(C)(C)C)nc3cc(C(=O)NCc4ccccc4)ccc3n12 [Example 210, [4-(7-benzylcarbamoyl-1-methyl-[1,2,4]triazolo[4,3-a]quinoxaline-4-ylamino)-butyl]-carbamic acid-tert-butylester]	–	760 nM	–	–	–
44 nM	≤ 50 nM	Cc1nnc2c(NCCCCNC(=O)OC(C)(C)C)nc3cc(C(=O)NC(C)C)ccc3n12 [Example 202, [4-(7-isopropylcarbamoyl-1-methyl-[1,2,4]triazolo[4,3-a]quinoxaline-4-ylamino)-butyl]-carbamic acid-tert-butylester]	–	640 nM	–	–	–
31 nM	≤ 50 nM	Cc1nnc2c(NCCCCNC(=O)C(C)(C)C)nc3cc(NC(=O)C(C)C)ccc3n12 [Example 247, N-[4-(7-isobutyramido-1-methyl-[1,2,4]triazolo[4,3-a]quinoxaline-4-ylamino)-butyl]-2,2-dimethyl-propionamide]	≤ 500 nM	400 nM	–	–	–
